In article PMC7596181 (Frontiers in Immunology, 2020):

Target: T1, mouse TLR4 (Mus musculus, UniProt Q9JHF9+Q9QUK6)
T1 sequence (Q9QUK6 26-835): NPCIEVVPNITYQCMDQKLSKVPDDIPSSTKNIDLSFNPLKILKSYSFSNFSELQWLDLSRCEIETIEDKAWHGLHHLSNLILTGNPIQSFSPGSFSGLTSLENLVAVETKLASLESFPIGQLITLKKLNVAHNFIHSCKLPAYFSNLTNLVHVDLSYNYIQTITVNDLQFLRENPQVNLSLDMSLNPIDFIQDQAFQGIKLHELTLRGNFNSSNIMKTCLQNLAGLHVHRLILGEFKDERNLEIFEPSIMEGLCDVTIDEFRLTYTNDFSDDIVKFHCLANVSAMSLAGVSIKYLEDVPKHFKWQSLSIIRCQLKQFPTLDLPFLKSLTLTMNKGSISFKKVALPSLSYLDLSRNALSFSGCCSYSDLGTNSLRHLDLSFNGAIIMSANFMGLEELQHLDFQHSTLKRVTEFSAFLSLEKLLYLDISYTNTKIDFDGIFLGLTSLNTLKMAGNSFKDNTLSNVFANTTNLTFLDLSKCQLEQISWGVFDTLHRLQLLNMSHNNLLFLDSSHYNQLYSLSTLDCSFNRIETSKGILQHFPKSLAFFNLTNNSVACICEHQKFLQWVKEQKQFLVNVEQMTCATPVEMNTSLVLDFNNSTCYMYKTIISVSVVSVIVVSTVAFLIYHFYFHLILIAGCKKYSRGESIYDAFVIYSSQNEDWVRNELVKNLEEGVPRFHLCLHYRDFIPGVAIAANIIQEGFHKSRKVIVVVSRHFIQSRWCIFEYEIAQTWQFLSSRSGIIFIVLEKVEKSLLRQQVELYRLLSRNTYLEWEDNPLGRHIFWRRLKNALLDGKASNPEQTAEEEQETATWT
T1 sequence (Q9JHF9 19-160): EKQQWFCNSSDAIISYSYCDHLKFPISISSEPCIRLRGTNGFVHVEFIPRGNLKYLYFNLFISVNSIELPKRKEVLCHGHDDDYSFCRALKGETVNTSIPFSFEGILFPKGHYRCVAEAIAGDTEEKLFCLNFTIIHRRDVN
Assay: SEAP assay, agonist dose response in mouse TLR4 HEK-Blue reporter cells
Type: cell-based
Parameters: host or cells: HEK-Blue (HEK293-derived) reporter cells
Conditions: for agonist profile: mouse TLR4 HEK-Blue reporter cells
Protocol: Human and mouse HEK-Blue reporter cells express human or mouse CD14, MD2, and TLR4 and secreted embryonic alkaline phosphatase (SEAP) under control of a promoter with binding sites for NFκB and AP-1 transcription factors (InvivoGen cat. nos. hkb-htlr4 and hkb-mtlr4). Cells were cultured as directed by the supplier, with the exception that Glutamax (ThermoFisher cat. no. 10569010) was used in place of L-glutamine, and TrypLE Express (ThermoFisher cat. no. 12605010) was used to release adherent cells for each passage. BALB/c mouse RAW264.7 and human THP-1 cells (ATCC® cat. nos. TIB-71 and TIB-202) were cultured in DMEM (4.5 g/L D-Glucose with 2 mM L-glutamine, 1 mM sodium pyruvate, 100 U/ml penicillin and 100 μg/ml streptomycin) supplemented with 10% heat-inactivated FBS. THP-1 cells were exposed to phorbol-12-myristate-13-acetate (PMA, InvivoGen cat no. tlrl-pma), 5 ng/ml, for 48 h prior to treatment with TLR4 agonists. Bone marrow-derived dendritic cells (BMDCs) were generated using C57BL/6 mouse femurs following the exact method published by Lutz et al. ([29]) except that 5 rather than 20 ng/ml recombinant GM-CSF was used to differentiate the DC. Human peripheral blood […] (PBMCs) were prepared from venous blood of healthy volunteers that had been collected using sodium citrate as anti-coagulant, 20 ml of which was mixed with 15 ml calcium- and magnesium-free Hank’s Balanced Saline Solution (HBSS) and then laid over 6 ml Histopaque®-1077 (1.077 g/ml, Sigma-Aldrich cat no. 10771) for density gradient centrifugation. The buffy coat layer was collected by pipette, washed once in HBSS, once in serum-free RPMI-1640, and then the PBMCs were resuspended in RPMI-1640 supplemented with 100 U/ml penicillin, 100 µg/ml streptomycin, 1 mM Na-Pyruvate, 2 mM L-glutamine, 50 μM βME and 10% heat-inactivated, male AB human serum for culture.
SEAP assays were performed to evaluate the extent to which TLR4 signaling was activated in HEK-Blue reporter cells expressing mouse or human receptors (CD14, MD2 and TLR4). Reporter cells were harvested when 70–80% confluent and plated in 96-well, flat-bottom microtiter plates either 1 h, one day or two days (5 × 10^4, 4 × 10^4 or 2 × 10^4 cells/well, respectively) before addition of TLR4 agonists for 18–24 h. Culture supernatants were transferred to U-bottom microtiter plates, centrifuged and transferred again to microtiter plates to ensure reporter cells were not present. The culture supernatants were added to QUANTI-BLUE substrate following instructions provided by the manufacturer (InvivoGen cat. nos. rep-qbl or rep-qbs) and incubated at 37°C in a tissue culture incubator. At successive intervals beginning 10 min after mixing the supernatants and substrate, the plates were placed in an Emax plate reader (Molecular Devices LLC) and optical density was measured at visible light wavelength […] (OD650). The shortest incubations at which dose response curve fits produced maximal R^2 ‘goodness of fit’ values, as determined by GraphPad Prism software, were used for analysis.
Pharmacological profiles of the TLR4 reagents were generated by performing dose response curves in one of four formats. 1) Agonist potency and efficacy (EC50 and height of dose plateau, respectively) were measured by diluting TLR4 reagents successively in complete culture medium [DMEM or RPMI supplemented with fetal bovine serum (FBS) or RPMI supplemented with human serum, depending on cell-type]. Half-log step dilutions were performed in 96-well, U-bottom microtiter plates using a multichannel pipette to transfer and mix the suspensions, with fresh tips used for each dilution step. One-tenth (20 μl) volumes from wells of the dilution plate were then transferred to wells containing cells that had been plated in nine-tenth volumes (180 μl) of culture medium. […]

Row | agonist profile | efficacy relative to the full agonist PHAD (mouse TLR4 HEK-Blue, 100% = top dose plateau of PHAD) | Compound
1 | agonist only of mouse TLR4 | ~80% | CCCCCCCCCCCC(=O)OC(CCCCCCCCCCC)CC(=O)NC1C(OCC2OC(O)C(NC(=O)CC(O)CCCCCCCCCCC)C(O)C2O)OC(CO)C(OP(=O)(O)O)C1OC(=O)CC(O)CCCCCCCCCCC (stereo not shown) [ML4A]
2 | largely inactive |  | CCCCCCCCCCCCCCCC(=O)OC(CCCCCCCCCCC)CC(=O)NC1C(O)OC(COC2OC(CO)C(OP(=O)(O)O)C(O)C2NC(=O)CC(CCCCCCCCCCC)OC(=O)CCCCCCCCCCC)C(O)C1O (stereo not shown) [ML4B]
3 | largely inactive |  | CCCCCCCCCCCC(=O)OC(CCCCCCCCCCC)CC(=O)NC1C(OCC2OC(O)C(NC(=O)CC(O)CCCCCCCCCCC)C(O)C2O)OC(CO)C(OP(=O)(O)O)C1O (stereo not shown) [ML3]
